Earlier results on 1 compound are cited in patent US6689909B1, “Substituted N-phenyl 2-hydroxy-2-methyl-3,3,3-trifluoropropanamide derivatives which elevate pyruvate dehydrogenase activity” (AstraZeneca AB, priority 1999, dated 2004).

For data set [1] the following is noted: after repeated administration.
For another data set, the system named is PDH. As to conditions: single administration, 150 mg/kg, intraperitoneally.

For the compound `O=C(O)C(Cl)Cl` [DCA, dichloroacetic acid], in data set [1], the plasma glucose entry was “significant decrease in plasma glucose”. The “proportion of PDH in its active form” value in the data set on PDH is given as “increased the proportion of PDH in its active form”.
